Reference: patent US11865101B2, “Cromolyn metal complexes as enhanced pharmaceutical formulations and method of preparing the same” (University of Puerto Rico, priority 2020, dated 2024)

Experiments:
[1] = Dissolution / stability in FaSSGF (pH 1.60) at 37° C.; assay type: physicochemical; details: FaSSGF pH=1.60, 37° C.
Experimental: Dissolution profiles—Dissolution profiles were recorded for CS, Cromolyn-Zn, Cromolyn-Mg, and Cromolyn-Ca and quantified by measuring absorbance at 237 nm against a reagent blank containing the buffered media. Dissolution tests were performed in a PBS buffer (pH=7.40) and FaSSGF (pH=1.60) at 37° C. under constant stirring (150 rpm). Absorbance measurements were performed on an Agilent Technologies Cary Series UV-Vis Spectrophotometer, Cary 100 UV-Vis model; using the UV Cary Scan software version v.20.0.470.
The stability of these materials in biologically relevant media was used to understand the ability of the pMCs to sustain blood plasma concentration for CS. A higher blood concentration might allow for longer circulation times and adequate delivery to the target tissues and organs. This is currently a pharmacological disadvantage for oral formulations of CS (<1% bioavailability and low solubility ˜100.0 mg/mL at 20° C.). […] Therefore, no further dissolution studies were carried out in this media.

[2] = Dissolution profile in PBS (pH 7.40) at 37° C., UV absorbance at 237 nm; assay type: physicochemical; details: PBS pH=7.40, 37° C., 150 rpm, after 1 hr
Experimental: Dissolution profiles—Dissolution profiles were recorded for CS, Cromolyn-Zn, Cromolyn-Mg, and Cromolyn-Ca and quantified by measuring absorbance at 237 nm against a reagent blank containing the buffered media. Dissolution tests were performed in a PBS buffer (pH=7.40) and FaSSGF (pH=1.60) at 37° C. under constant stirring (150 rpm). Absorbance measurements were performed on an Agilent Technologies Cary Series UV-Vis Spectrophotometer, Cary 100 UV-Vis model; using the UV Cary Scan software version v.20.0.470. Stock Solution: A standard stock solution of CS was prepared by dissolving 10 mg in a 100 mL (0.1 mg/mL) volumetric flask and completing to volume with PBS. Dilute solutions were obtained by appropriate dilution of this stock solution. […] PBS was used as the solvent. The absorbance of CS was measured at maximum absorption wavelength (λmax) of 237 nm against a solvent blank (PBS). […] Dissolution profiles were recorded for CS, Cromolyn-Zn, Cromolyn-Mg, and Cromolyn-Ca. […] The absorbance of CS was measured at 237 nm against the solvent blank. […] Absorbance measurements were performed on an Agilent Technologies Cary Series UV-Vis Spectrophotometer, Cary 100 UV-Vis; using the UV Cary Scan software version v.20.0.470. […] The absorbance was measured at the maximum wavelength (λmax=237 nm) for CS as the degradation of the pMCs progressed in PBS over time. […]

[3] = orally administered, absorption from the gastrointestinal tract; cited from earlier work
[4] = at 20° C.; cited from earlier work
[5] = noted by others; above it CS forms supramolecular aggregates; cited from earlier work

dissolution / degradation in FaSSGF [1]: no detectable dissolution
maximum concentration of CS dissolved [2]: ~98%
Structure (SMILES): O=C(O)c1cc(=O)c2c(OCC(O)COc3cccc4oc(C(=O)O)cc(=O)c34)cccc2o1 [CS, cromolyn sodium]
bioavailability [3]: < 1%
solubility [4]: ~100.0 mg/mL
critical self-association concentration [5]: 10.00 mg/mL
